# Target: BTK, recombinant human catalytic domain (aa 393-659) (Homo sapiens (Human), UniProt Q06187)
# Assay: In vitro BTK kinase activity measured by time-resolved fluorescence resonance energy transfer (trFRET)
# Type: biochemical
# Conditions: not given
# Chain of BTK, recombinant human catalytic domain (aa 393-659) (Q06187 393-659): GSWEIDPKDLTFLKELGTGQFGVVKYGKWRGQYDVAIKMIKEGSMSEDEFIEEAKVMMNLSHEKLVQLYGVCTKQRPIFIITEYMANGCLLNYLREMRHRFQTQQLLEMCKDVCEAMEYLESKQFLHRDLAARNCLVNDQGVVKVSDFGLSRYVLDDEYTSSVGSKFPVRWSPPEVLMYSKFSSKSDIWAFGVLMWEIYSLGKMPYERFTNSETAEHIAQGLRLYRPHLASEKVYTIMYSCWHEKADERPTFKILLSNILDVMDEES
row,SMILES,IC50 [nM]
1,Cc1c(NC(=O)c2nccs2)cccc1-c1ccc(C(N)=O)c2[nH]cc(NC(=O)CCl)c12 [E.5.1],1000 to 10000

# Same assay, conditions: read-out: Btk IC50
row,IC50 [nM],SMILES
1,< 100,C=CC(=O)N1CC(N(C)c2ccc(C(N)=O)c3[nH]c(C4CCS(=O)(=O)CC4)cc23)C1 [E.9.19]
2,100 to 1000,CC(=O)C(=O)Nc1cccc(-c2ccc(C(N)=O)c3[nH]ccc23)c1 [E.7.1]
3,100 to 1000,C=CC(=O)N1C[C@@H]2CN(c3ccc(C(N)=O)c4[nH]ccc34)C[C@@H]21 [E.9.43]
4,< 100,C=CC(=O)Nc1cc(-c2ccc(C(N)=O)c3[nH]ccc23)ccc1F [E.1.23]
5,< 100,Cc1c(NC(=O)/C=C/C(N)=O)cccc1-c1ccc(C(N)=O)c2[nH]c(C3=CCN(S(C)(=O)=O)CC3)cc12 [D.7.25]
6,< 100,Cc1c(NC(=O)COc2ccc(F)cc2)cccc1-c1ccc(C(N)=O)c2[nH]c(C3=CCN(S(C)(=O)=O)CC3)cc12 [D.7.11]
7,100 to 1000,Cc1c(NC(=O)CCN2CCCCC2)cccc1-c1ccc(C(N)=O)c2[nH]c(C3=CCN(S(C)(=O)=O)CC3)cc12 [D.7.3]
8,< 100,C=CC(=O)N1CC[C@H](c2ccc(C(N)=O)c3[nH]c(-c4cc5n(n4)CCOC5)cc23)C1 [E.9.26]
9,< 100,C=CC(=O)N1CC(N(C)c2ccc(C(N)=O)c3[nH]c(-c4ccc5c(c4)CCN(CC)C5)cc23)C1 [E.9.17]
10,1000 to 10000,NC(=O)c1ccc(N2CCC[C@@H](n3cnc4ccccc4c3=O)C2)c2cc[nH]c12 [O.1.12*]
11,< 100,C=CC(=O)N1CCC[C@@H](c2ncc(C(N)=O)c3[nH]ccc23)C1 [E.9.32]
12,< 100,C=CC(=O)N1CC(C)(N(C)c2ccc(C(N)=O)c3[nH]ccc23)C1 [E.9.35]
13,1000 to 10000,Cn1cc(-c2cc3c(N4CCC[C@@H](N5Cc6ccc(F)cc6C5=O)C4)ccc(C(N)=O)c3[nH]2)cn1 [O.1.18*]
14,< 100,Cc1c(NC(=O)/C=C\C(N)=O)cccc1-c1ccc(C(N)=O)c2[nH]c(C3=CCN(S(C)(=O)=O)CC3)cc12 [D.7.10]
15,< 100,CCOC(=O)N1CC=C(c2cc3c(-c4cccc(-n5cnc6ccccc6c5=O)c4C)ccc(C(N)=O)c3[nH]2)C1 [E.6.1]
16,< 100,C=CC(=O)N1CCOC[C@@H](c2ncc(C(N)=O)c3[nH]ccc23)C1 [E.9.30]
17,100 to 1000,C=CC(=O)Nc1cc(C)cc(-c2ccc(C(N)=O)c3[nH]ccc23)c1 [E.1.29]
18,100 to 1000,C=CC(=O)N1CCC[C@H](c2ncc(C(N)=O)c3[nH]ccc23)C1 [E.9.33]
19,100 to 1000,C=CC(=O)N1CC(N(C)c2ccc(C(N)=O)c3[nH]c(C4(O)COC4)cc23)C1 [E.9.1.1]
20,< 100,C=CC(=O)N(Cc1nccs1)c1cccc(-c2ccc(C(N)=O)c3[nH]c(C4=CCN(S(C)(=O)=O)CC4)cc23)c1C [E.1.7]
21,< 100,Cc1c(NC(=O)CCN2CCN(C)CC2)cccc1-c1ccc(C(N)=O)c2[nH]c(C3=CCN(S(C)(=O)=O)CC3)cc12 [D.7.27]
22,100 to 1000,C=CC(=O)N1C[C@H](CO)C[C@@H](c2ccc(C(N)=O)c3[nH]ccc23)C1 [E.9.44]

# Same assay, conditions: trFRET, 0.001 mM ATP, biotin-TYR1 peptide substrate; read-out: Btk IC50
row,IC50 [nM],SMILES
1,< 100,C=CC(=O)Nc1cccc(-c2ccc(C(N)=O)c3[nH]c(-c4ccncc4)cc23)c1C [A.1.12]
2,< 100,"CS(=O)(=O)N1CC=C(c2cc3c(N4CC[C@@H](O)[C@H](NC(=O)c5nccs5)C4)ccc(C(N)=O)c3[nH]2)CC1 (relative stereo) [O.1, N-(trans-1-(7-carbamoyl-2-(1-(methylsulfonyl)-1,2,3,6-tetrahydropyridin-4-yl)-1H-indol-4-yl)-4-hydroxypiperidin-3-yl)thiazole-2-carboxamide]"
3,< 100,Cc1c(NCCO)cccc1-c1ccc(C(N)=O)c2[nH]c(C3=CCN(S(C)(=O)=O)CC3)cc12 [A.4.13]
4,< 100,Cc1c(-c2ccc(C(N)=O)c3[nH]c(-c4cnn(C[C@@H](O)CO)c4)cc23)cccc1-n1cnc2ccccc2c1=O [K.1]
5,100 to 1000,Cc1ccc(-c2cc3c(-c4ccsc4)ccc(C(N)=O)c3[nH]2)cc1 [A.8.6]
6,< 100,C=CC(=O)Nc1cccc(-c2ccc(C(N)=O)c3[nH]c(C4=CCN(S(C)(=O)=O)CC4)cc23)c1 [A.4.15]
7,1000 to 10000,"N#CCNC(=O)c1cccc(-c2ccc(C(N)=O)c3[nH]ccc23)c1 [Example 15, 4-(3-((Cyanomethyl)carbamoyl)phenyl)-1H-indole-7-carboxamide]"
8,< 100,Cn1cc(-c2cc3c(-c4cccc(-n5ccc6cc(C7CC7)cc(F)c6c5=O)c4CO)ccc(C(N)=O)c3[nH]2)cn1 [A.15.1]
9,100 to 1000,C=CC(=O)Nc1cccc(-c2ccc(C(N)=O)c3[nH]c(-c4c(C)noc4C)cc23)c1C [A.1.1]
10,100 to 1000,Cc1ccc(-c2cc3c(-c4ccn[nH]4)ccc(C(N)=O)c3[nH]2)cc1 [A.8.8]
11,< 100,CC(=O)N1CC=C(c2cc3c(-c4cccc(NC(=O)c5cc6c(s5)CCCC6)c4C)ccc(C(N)=O)c3[nH]2)CC1 [A.3.5]
12,100 to 1000,Cc1c(NC(=O)/C=C/C2CC2)cccc1-c1ccc(C(N)=O)c2[nH]ccc12 [D.8.6]
13,< 100,"C=CC(=O)Nc1cccc(-c2ccc(C(N)=O)c3[nH]c(CC)cc23)c1 [Example 20, 4-(3-Acrylamidophenyl)-2-ethyl-1H-indole-7-carboxamide]"
14,< 100,C=CC(=O)Nc1cccc(-c2ccc(C(N)=O)c3[nH]c(-c4cccnc4)cc23)c1C [A.1.36]
15,< 100,Cc1c(NC(=O)c2ccc(C(C)(C)C)cc2)cccc1-c1ccc(C(N)=O)c2[nH]c(-c3cccnc3)cc12 [A.7.1]
16,100 to 1000,Cc1c(NC(=O)c2nccs2)cccc1-c1ccc(C(N)=O)c2[nH]c(-c3ccccc3CNC(=O)CC#N)cc12 [D.1.3]
17,< 100,Cc1c(-c2ccc(C(N)=O)c3[nH]c(-c4cnn(CC(C)(C)O)c4)cc23)cccc1-n1cnc2ccc(F)cc2c1=O [A.14.1]
18,1000 to 10000,C=CC(=O)Nc1c[nH]c2c(C(N)=O)ccc(-c3cccc(NC(=O)c4nccs4)c3C)c12 [D.3.2]
19,100 to 1000,NC(=O)c1ccc(-c2cncnc2)c2cc(-c3ccc(F)cc3)[nH]c12 [A.9.1]
20,< 100,C=CC(=O)Nc1cccc(-c2ccc(C(N)=O)c3[nH]c(-c4ccc(F)nc4)cc23)c1C [A.1.16]
21,< 100,C=C(CN(C)C)C(=O)Nc1cccc(-c2ccc(C(N)=O)c3[nH]ccc23)c1 [D.6.1]
22,100 to 1000,"C=CC(=O)N[C@H]1CCC[C@H](c2ccc(C(N)=O)c3[nH]ccc23)C1 (relative stereo) [Example 9, 4-(trans-3-Acrylamidocyclohexyl)-1H-indole-7-carboxamide]"
23,< 100,C#CC(=O)N1CC(N(C)c2ccc(C(N)=O)c3[nH]c(C)cc23)C1 [D.10.1]
24,100 to 1000,Cc1c(NC(=O)/C=C/c2cccnc2)cccc1-c1ccc(C(N)=O)c2[nH]ccc12 [D.8.4]
25,1000 to 10000,"Cc1oncc1C(=O)Nc1cccc(-c2ccc(C(N)=O)c3[nH]ccc23)c1 [E.2.1, N-(3-(7-carbamoyl-1H-indol-4-yl)phenyl)-5-methylisoxazole-4-carboxamide]"
26,< 100,Cc1c(-c2ccc(C(N)=O)c3[nH]c(-c4ccc(F)cc4)cc23)cccc1N1Cc2ccc(F)cc2C1=O [A.9.6]
27,< 100,"Cn1cc(-c2cc3c(-c4cccc(NC(=O)c5nccs5)c4CO)ccc(C(N)=O)c3[nH]2)cn1 [M.1, N-(3-(7-carbamoyl-2-(1-methyl-1H-pyrazol-4-yl)-1H-indol-4-yl)-2-(hydroxymethyl)phenyl)thiazole-2-carboxamide]"
28,100 to 1000,CC(=O)c1ccc(-c2ccc(C(N)=O)c3[nH]c(-c4ccc(C)cc4)cc23)s1 [A.8.5]
